Results: patent US8729089B2 (Gilead Sciences, Inc., priority 2006, dated 2014)

Experiments:
[1] = test system: HCV replicon in human hepatoma Huh-7 cell line; assay: Anti-HCV replicon assay (EC50, luciferase); format: cell-based; settings: Hepatitis C virus, Huh-7, 72 h
Experimental: (§1) The anti-HCV activity of the pyrido[3,2-d]pyrimidine derivatives of this invention was tested in a human hepatoma Huh-7 cell line harboring a HCV replicon. The assay comprised the following steps:
(§2) Step 1: Compound Preparation and Serial Dilution
(§3) • 1. for water soluble pyrido[3,2-d]pyrimidine derivatives, a volume of 500 μL of solution in cell media (DMEM, 10% FBS, P/S, L-Glutamine) was prepared with a concentration being twice the concentration of the starting final serial dilution concentration. A volume of 150 μL of the solution was added to the pre-specified wells in column 1 of a 96-well cell culture plate (PerkinElmer, white plate, cat. #6005181, for EC50 assay; black plate, cat. #6005182 for CC50 assay). The rest of the plate, columns 2-12, was filled with 100 μL of cell media. The plate was then placed on a Precision 2000 Workstation to start the serial dilution. Compounds were diluted three times each step from column 1 to column 10. Column 11 was used as a blank control (no compound added). • 2. for pyrido[3,2-d]pyrimidine derivatives requiring DMSO to dissolve, serial dilution is performed in 50% DMSO in a 384-well plate. A solution containing a compound at 100-fold concentration of the starting final serial dilution concentration was prepared in 50% DMSO and added to the pre-specified wells in column 1 of a polypropylene 384-well plate. The plate was then placed on a Precision 2000 Workstation to start the serial dilution. After the serial dilution, a volume of 2 μL of the solution was transferred from the 384-well plate to a 96-well cell culture plate containing 100 μL of cell media on a Biomek FX Workstation. The DMSO concentration in the final assay condition was 0.5% after cells are added to the plate and the total volume in each well is brought to 200 μL.
(§4) Step 2: to each well of the serial dilution plate prepared above, 100 μL of cell media containing 6000 suspended Huh-7 HCV replicon cells was added with a Multidrop workstation. The plates were incubated for 3 days at 37° C. with 5% CO2.
(§5) • a) for the EC50 assay, the media in a 96-well cell culture plate was aspirated with a Biotek EL405 plate-washer. A volume of 200 μL of a solution containing a 1:1 mixture of cell-lysis buffer (Promega, Luciferase Cell Culture Lysis 5× Reagent, cat. #E1531) and luciferase substrate solution (Promega, Luciferase Assay, cat.#E4550) was added to each well of the plate with Multidrop. The plate was incubated for 30 minutes at room temperature before the luminescence signal was measured with a TopCount plate-reader. • b) for the CC50 assay, a volume of 100 μL of pre-mixed CellTiter-Glo (Promega, cat.#G7572) solution is added directly to the cell culture in each well of the plate and the luminescence signal is measured with a TopCount plate-reader after 10 minutes of incubation at room temperature.

[2] = CC50 assay (CellTiter-Glo) in Huh-7 HCV replicon cells; format: cell-based, human; settings: human, 3 days incubation, CellTiter-Glo readout
Experimental: as §1, §2, §3, §4, §5

Fc1ccc(-c2ccc3nc(NCC(F)(F)F)nc(O[C@H]4CCOC4)c3n2)cc1 [Example 20, [6-(4-Fluoro-phenyl)-4-(tetrahydro-furan-3-yloxy)-pyrido[3,2-d]pyrimidin-2-yl]-(2,2,2-trifluoro-ethyl)-amine]
EC50 [1]: < 0.1 µM
CC50 at 3 days [2]: > 25 µM

CCOc1nc(NCC(F)(F)F)nc2ccc(-c3ccc(F)cc3)nc12 [Example 21, [4-Ethoxy-6-(4-fluoro-phenyl)-pyrido[3,2-d]pyrimidin-2-yl]-(2,2,2-trifluoro-ethyl)-amine]
EC50 [1]: < 0.1 µM
CC50 at 3 days [2]: 5 to 25 µM

Fc1ccc(CNc2nc(O[C@H]3CCOC3)c3nc(-c4ccc(F)cc4)ccc3n2)cc1 [Example 23, (4-Fluoro-benzyl)-[6-(4-fluoro-phenyl)-4-(tetrahydro-furan-3-yloxy)-pyrido[3,2-d]pyrimidin-2-yl]amine]
EC50 [1]: < 0.1 µM
CC50 at 3 days [2]: 5 to 25 µM

NC(=O)CCNc1nc(NCc2ccc(F)cc2)nc2ccc(-c3ccc(F)cc3)nc12 [Example 24, 3-[2-(4-Fluoro-benzylamino)-6-(4-fluoro-phenyl)-pyrido[3,2-d]pyrimidin-4-ylamino]-propionamide]
EC50 [1]: < 0.1 µM
CC50 at 3 days [2]: 5 to 25 µM

CC(C)(O)CNc1nc(NCc2ccc(F)cc2)nc2ccc(-c3ccc(F)cc3)nc12 [Example 25, 1-[2-(4-Fluoro-benzylamino)-6-(4-fluoro-phenyl)-pyrido[3,2-d]pyrimidin-4-ylamino]-2-methyl-propan-2-ol]
EC50 [1]: < 0.1 µM
CC50 at 3 days [2]: < 5 µM

COc1nc(NCc2ccc(F)cc2)nc2ccc(-c3ccc(F)cc3)nc12 [Example 26, (4-Fluoro-benzyl)-[6-(4-fluoro-phenyl)-4-methoxy-pyrido[3,2-d]pyrimidin-2-yl]-amine]
EC50 [1]: < 0.1 µM
CC50 at 3 days [2]: > 25 µM

CS(=O)(=O)C1CCN(c2nc(NCc3ccc(F)cc3)nc3ccc(-c4ccc(F)cc4)nc23)C1 (centres unmarked) [Example 27, (4-Fluoro-benzyl)-[6-(4-fluoro-phenyl)-4-(3-methanesulfonyl-pyrrolidin-1-yl)-pyrido[3,2-d]pyrimidin-2-yl]-amine]
EC50 [1]: < 0.1 µM
CC50 at 3 days [2]: < 5 µM

CN(CCS(C)(=O)=O)c1nc(NCc2ccc(F)cc2)nc2ccc(-c3ccc(F)cc3)nc12 [Example 28, N2-(4-Fluoro-benzyl)-6-(4-fluoro-phenyl)-N4-(2-methanesulfonyl-ethyl)-N4-methyl-pyrido[3,2-d]pyrimidine-2,4-diamine]
EC50 [1]: < 0.1 µM
CC50 at 3 days [2]: > 25 µM

CC(C)N1CCC(Nc2nc(NCc3ccc(F)cc3)nc3ccc(-c4ccc(F)cc4)nc23)CC1 [Example 29, N2-(4-Fluoro-benzyl)-6-(4-fluoro-phenyl)-N4-(1-isopropyl-piperidin-4-yl)-pyrido[3,2-d]pyrimidine-2,4-diamine]
EC50 [1]: < 0.1 µM
CC50 at 3 days [2]: < 5 µM

CCNc1nc(NCc2ccc(F)cc2)nc2ccc(-c3ccc(F)cc3)nc12 [Example 30, N4-Ethyl-N2-(4-fluoro-benzyl)-6-(4-fluoro-phenyl)-pyrido[3,2-d]pyrimidine-2,4-diamine]
EC50 [1]: < 0.1 µM
CC50 at 3 days [2]: 5 to 25 µM

Fc1ccc(CNc2nc(NCc3cccnc3)c3nc(-c4ccc(F)cc4)ccc3n2)cc1 [Example 31, N2-(4-Fluoro-benzyl)-6-(4-fluoro-phenyl)-N4-pyridin-3-ylmethyl-pyrido[3,2-d]pyrimidine-2,4-diamine]
EC50 [1]: < 0.1 µM
CC50 at 3 days [2]: 5 to 25 µM

Fc1ccc(CNc2nc(NCCN3CCOCC3)c3nc(-c4ccc(F)cc4)ccc3n2)cc1 [Example 32, N2-(4-Fluoro-benzyl)-6-(4-fluoro-phenyl)-N4-(2-morpholin-4-yl-ethyl)-pyrido[3,2-d]pyrimidine-2,4-diamine]
EC50 [1]: < 0.1 µM
CC50 at 3 days [2]: 5 to 25 µM

Fc1ccc(CNc2nc(NCC(F)(F)F)c3nc(-c4ccc(F)cc4)ccc3n2)cc1 [Example 33, N2-(4-Fluoro-benzyl)-6-(4-fluoro-phenyl)-N4-(2,2,2-trifluoro-ethyl)-pyrido[3,2-d]pyrimidine-2,4-diamine]
EC50 [1]: < 0.1 µM
CC50 at 3 days [2]: 5 to 25 µM

COCCNc1nc(NCc2ccc(F)cc2)nc2ccc(-c3ccc(F)cc3)nc12 [Example 34, N2-(4-Fluoro-benzyl)-6-(4-fluoro-phenyl)-N4-(2-methoxy-ethyl)-pyrido[3,2-d]pyrimidine-2,4-diamine]
EC50 [1]: < 0.1 µM
CC50 at 3 days [2]: < 5 µM

CCOc1nc(NCc2ccc(F)c(F)c2)nc2ccc(-c3ccc(F)cc3)nc12 [Example 35, (3,4-Difluoro-benzyl)-[4-ethoxy-6-(4-fluoro-phenyl)-pyrido[3,2-d]pyrimidin-2-yl]-amine]
EC50 [1]: < 0.1 µM
CC50 at 3 days [2]: 5 to 25 µM

CCOc1nc(NCc2c(F)cc(OC)cc2F)nc2ccc(-c3ccc(F)cc3)nc12 [Example 36, (2,6-Difluoro-4-methoxy-benzyl)-[4-ethoxy-6-(4-fluoro-phenyl)-pyrido[3,2-d]pyrimidin-2-yl]-amine]
EC50 [1]: < 0.1 µM
CC50 at 3 days [2]: 5 to 25 µM

CCOc1nc(NCc2c(F)cc(Cl)cc2F)nc2ccc(-c3ccc(F)cc3)nc12 [Example 37, (4-Chloro-2,6-difluoro-benzyl)-[4-ethoxy-6-(4-fluoro-phenyl)-pyrido[3,2-d]pyrimidin-2-yl]-amine]
EC50 [1]: < 0.1 µM
CC50 at 3 days [2]: 5 to 25 µM

CCOc1nc(NCc2ccc(Cl)cc2F)nc2ccc(-c3ccc(F)cc3)nc12 [Example 38, (4-Chloro-2-fluoro-benzyl)-[4-ethoxy-6-(4-fluoro-phenyl)-pyrido[3,2-d]pyrimidin-2-yl]-amine]
EC50 [1]: < 0.1 µM
CC50 at 3 days [2]: 5 to 25 µM

CCOc1nc(NCc2c(F)cc(F)cc2F)nc2ccc(-c3ccc(F)cc3)nc12 [Example 39, (4-Ethoxy-6-(4-fluoro-phenyl)-pyrido[3,2-d]pyrimidin-2-yl]-(2,4,6-trifluoro-benzyl)-amine]
EC50 [1]: < 0.1 µM
CC50 at 3 days [2]: 5 to 25 µM

CCOc1nc(NCc2ccc(Cl)c(F)c2)nc2ccc(-c3ccc(F)cc3)nc12 [Example 40, (4-Chloro-3-fluoro-benzyl)-[4-ethoxy-6-(4-fluoro-phenyl)-pyrido[3,2-d]pyrimidin-2-yl]-amine]
EC50 [1]: < 0.1 µM
CC50 at 3 days [2]: 5 to 25 µM

CCOc1nc(NCc2ccc(F)c(F)c2F)nc2ccc(-c3ccc(F)cc3)nc12 [Example 41, [4-Ethoxy-6-(4-fluoro-phenyl)-pyrido[3,2-d]pyrimidin-2-yl]-(2,3,4-trifluoro-benzyl)-amine]
EC50 [1]: < 0.1 µM
CC50 at 3 days [2]: 5 to 25 µM

CCOc1nc(NCc2ccc(F)c(Cl)c2)nc2ccc(-c3ccc(F)cc3)nc12 [Example 42, (3-Chloro-4-fluoro-benzyl)-[4-ethoxy-6-(4-fluoro-phenyl)-pyrido[3,2-d]pyrimidin-2-yl]-amine]
EC50 [1]: < 0.1 µM
CC50 at 3 days [2]: 5 to 25 µM

CCOc1nc(NCc2ccc(F)cc2Cl)nc2ccc(-c3ccc(F)cc3)nc12 [Example 43, (2-Chloro-4-fluoro-benzyl)-[4-ethoxy-6-(4-fluoro-phenyl)-pyrido[3,2-d]pyrimidin-2-yl]-amine]
EC50 [1]: < 0.1 µM
CC50 at 3 days [2]: > 25 µM

CCOc1nc(NCc2ccc(C(F)(F)F)c(F)c2)nc2ccc(-c3ccc(F)cc3)nc12 [Example 44, [4-Ethoxy-6-(4-fluoro-phenyl)-pyrido[3,2-d]pyrimidin-2-yl]-(3-fluoro-4-trifluoromethyl-benzyl)-amine]
EC50 [1]: < 0.1 µM
CC50 at 3 days [2]: 5 to 25 µM

CCOc1nc(NCc2cc(F)cc(F)c2)nc2ccc(-c3ccc(F)cc3)nc12 [Example 45, (3,5-Difluoro-benzyl)-[4-ethoxy-6-(4-fluoro-phenyl)-pyrido[3,2-d]pyrimidin-2-yl]-amine]
EC50 [1]: < 0.1 µM
CC50 at 3 days [2]: 5 to 25 µM

CCOc1nc(NCc2cc(F)c(F)c(F)c2)nc2ccc(-c3ccc(F)cc3)nc12 [Example 46, [4-Ethoxy-6-(4-fluoro-phenyl)-pyrido[3,2-d]pyrimidin-2-yl]-(3,4,5-trifluoro-benzyl)-amine]
EC50 [1]: < 0.1 µM
CC50 at 3 days [2]: 5 to 25 µM

CCOc1nc(NCc2cccc(F)c2)nc2ccc(-c3ccc(F)cc3)nc12 [Example 47, [4-Ethoxy-6-(4-fluoro-phenyl)-pyrido[3,2-d]pyrimidin-2-yl]-(3-fluoro-benzyl)-amine]
EC50 [1]: < 0.1 µM
CC50 at 3 days [2]: 5 to 25 µM

CCOc1nc(NCc2cccc(Cl)c2F)nc2ccc(-c3ccc(F)cc3)nc12 [Example 48, (3-Chloro-2-fluoro-benzyl)-[4-ethoxy-6-(4-fluoro-phenyl)-pyrido[3,2-d]pyrimidin-2-yl]-amine]
EC50 [1]: < 0.1 µM
CC50 at 3 days [2]: > 25 µM
